Entries after “also recorded” stand apart in the source; their conditions may differ.
Tests used:
[1] = cited from earlier work
[2] = test system: TWIST1-overexpressing cells; experiment: Reversal of TWIST1-dependent growth arrest by p38 inhibition; format: cell-based; conditions: FIG. 4A
Text: TWIST1 was overexpressed so as to achieve maximal TWIST1 effect, thereby avoiding the confounding problem of added TGFβ1. TWIST1 overexpression alone generated vigorous TGFβ1-independent EMT and led to 2-3 fold lower ERK:p38 signaling ratio (i.e. high p38 activity) compared to the empty vector (FIG. 3D).
(§1) SNAIL1 represses TWIST1 during EMT initiation. TWIST1 maintains EMT by creating a low ERK:p38 signaling ratio (high p38 activity). Thus high SNAIL1 levels in primary tumors would induce EMT while high TWIST1 levels would maintain EMT in metastatic cells and possibly contribute to lpDTCs in metastatic sites (FIG. 1).

BM DTCs [3] = experiment: BM DTC count and lpDTC fraction in ErbB2-induced mouse breast cancer model after single-agent treatment; format: in vivo; conditions: for BM DTC count: FIG. 8A, p<0.05; for fraction of BM lpDTCs (TWIST1+; p-p38+; BrdU- DTCs over total BM DTCs): FIG. 8B
Text: FIGS. 8A-8B show the dormant TWIST1^+; p-p38; BrdU-DTCs resistance to cytotoxic drugs in ErbB2-induced mouse breast cancer model.
Of these TWIST1-positive BM DTCs, nearly 80% (23/29) expressed activated p38 (p-p38) and 70% (20/29) were also growth arrested as measured by a lack of BrdU incorporation (FIG. 7C-D). In contrast, of the TWIST1-negative DTCs, 94% (67/71) lacked activated p38 and 77% (55/71) were also actively proliferating. Therefore TWIST1-positive; p-p38-positive; BrDU-negative cells represent the fraction of true lpDTCs in these models. To confirm that these BM lpDTCs were resistant to cytotoxic agents and that p38 plays a critical role in their growth arrest, these mice were treated with either SB203085 (10 μmol/kg IP BID×7 days) or the cytotoxic drug paclitaxel (Taxol, 10 mg/kg IP once) and measured the number of all BM DTCs and the fraction of lpDTCs (ratio of TWIST1+; p-p38+; BrdU-DTCs over total BM DTCs). […] ErbB2- or PyMT-induced breast tumor mice were untreated or treated with either Taxol alone or a combination of SB203085 plus Taxol with SB203085 starting 72 hrs prior to and ending 72 hrs after each dose of Taxol (FIG. 9). Three 21-day cycles of chemotherapy were given. Total BM DTCs were determined prior to and 1 week after treatment ended.

BM DTCs [4] = experiment: p38 inhibitor plus Taxol in PyMT-induced breast tumor mice: total BM DTCs and overall survival; format: in vivo, mouse; conditions: MMTV-PyMT mice; SB203085 72 hrs prior to until 72 hrs after each Taxol dose, 3 cycles; vs Taxol alone and untreated
Protocol: FIGS. 9A-9B show the p38 inhibition increase the DTCs' sensitivity to cytotoxic chemotherapy. DTCs-bearing PyMT-induced breast tumor mice were either untreated or treated with Taxol alone (10 mg/kg) or with SB203085 (10 μg/kg) followed by Taxol. Taxol was given IP every 3 weeks for 3 cycles. SB203085 was given IP BID starting 72 hours prior to Taxol and continuing until 72 hours after Taxol infusion. Ten mice were included in each reference group. FIGS. 9A and B show the overall survival (A) and total BM DTCs (B) before and after chemo were determined.
Of these TWIST1-positive BM DTCs, nearly 80% (23/29) expressed activated p38 (p-p38) and 70% (20/29) were also growth arrested as measured by a lack of BrdU incorporation (FIG. 7C-D). In contrast, of the TWIST1-negative DTCs, 94% (67/71) lacked activated p38 and 77% (55/71) were also actively proliferating. […] To confirm that these BM lpDTCs were resistant to cytotoxic agents and that p38 plays a critical role in their growth arrest, these mice were treated with either SB203085 (10 μmol/kg IP BID×7 days) or the cytotoxic drug paclitaxel (Taxol, 10 mg/kg IP once) and measured the number of all BM DTCs and the fraction of lpDTCs (ratio of TWIST1+; p-p38+; BrdU-DTCs over total BM DTCs). […] Total BM DTCs were determined prior to and 1 week after treatment ended. […]

TWIST1-positive cells = experiment: Sensitivity of TWIST1-positive cells to Taxol with or without SB203580 pretreatment; format: cell-based
Text: as §1

SMILES	tolerability ([1]; 4 dose levels 0.5, 3, 6 and 10 mg PO qday)	most common side effect: skin rash ([1]; phase 2 trial in emphysema) [%]	severe adverse events ([1]; phase 2 trial in emphysema)	TWIST1-dependent growth arrest [2]	increase of number of total BM DTCs compared to non-treated animals (BM DTCs [3]; 10 μmol/kg IP BID x 7 days) [fold]	BM DTC count (BM DTCs [3])	fraction of BM lpDTCs (TWIST1+; p-p38+; BrdU- DTCs over total BM DTCs) (BM DTCs [3]; listed as SB203085)	overall survival (BM DTCs [4])	total BM DTCs (BM DTCs [4])	IC50 (TWIST1-positive cells; non-pretreated, FIG. 4B) [nM]	IC50 (TWIST1-positive cells; pretreatment with SB203580, FIG. 4B) [nM]	decrease of total DTC number (BM DTCs [3]; 10 mg/kg IP once) [fold]	fraction of BM lpDTCs (TWIST1+; p-p38+; BrdU- DTCs over total BM DTCs) (BM DTCs [3])
CNC(=O)c1ccc(C)c(-n2c(C)cc(OCc3ccc(F)cc3F)c(Br)c2=O)c1 [PH797804, 3-(4-(2,4-difluorobenzyloxy)-3-bromo-6-methyl-2-oxopyridin-1(2H)-yl)-N,4-dimethylbenzamide]	well tolerated	~1	No significant severe adverse events										
C[S+]([O-])c1ccc(-c2nc(-c3ccc(F)cc3)c(-c3ccncc3)[nH]2)cc1 (centres unmarked) [SB203580, 4-(4-Fluorophenyl)-2-(4-methylsulfinylphenyl)-5-(4-pyridyl)-1H-imidazole]				reversed TWIST1-dependent growth arrest in a dose dependent manner	> 4	increases	decreased	increased overall survival	significantly reduced total BM DTCs				
CC(=O)O[C@H]1C(=O)[C@@]2(C)[C@H]([C@H](OC(=O)c3ccccc3)[C@]3(O)C[C@H](OC(=O)[C@H](O)[C@@H](NC(=O)c4ccccc4)c4ccccc4)C(C)=C1C3(C)C)[C@]1(OC(C)=O)CO[C@@H]1C[C@@H]2O [Taxol, paclitaxel]						decreases				> 40	6.1	~2.5	enriches; also recorded: significantly increased

Reference: patent US11452713B2, “Chemotherapeutic methods for treating low-proliferative disseminated tumor cells” (University of Florida Research Foundation, Incorporated, priority 2016, dated 2022)
